# Experimental data taken from patent US11999746B2, “Compounds” (GlaxoSmithKline Intellectual Property Development Limited, priority 2014, dated 2024).
# How the values were obtained:
# [1] = system: proinflammatory (M1) and anti-inflammatory (M2) markers in splenic and CNS infiltrating macrophages; experiment: Ex vivo analysis of M1 and M2 markers in macrophages of EAE rats by realtime PCR; set-up: species or system rat; settings: macrophages of compound treated EAE rats, splenic macrophages harvested at day 13 post MBP-immunization
# Method: Ex vivo analysis of proinflammatory (M1) and anti-inflammatory (M2) markers in control and compound treated EAE rats. Splenic macrophages were harvested at day 13 post MBP-immunization and assayed for expression of a variety of markers by realtime PCR. CNS infiltrating cells were harvested and macrophages were analyzed for expression of M1 and M2 markers by realtime PCR.
# [2] = system: experimental autoimmune encephalomyelitis (EAE) rats; experiment: Rat experimental autoimmune encephalomyelitis (EAE) model, preventive treatment; type: in vivo; settings: compound administered from day 0 until day 22
# Method: A further study was carried out to study the impact of Lp-PLA2 inhibitors on modulating M1/M2 imbalance. In this study, rats were induced to develop experimental autoimmune encephalomyelitis (EAE) by immunization with myelin basic protein (MBP) antigen and treated with a known Lp-PLA2 inhibitor: 5-((9-Methoxy-4-oxo-6,7-dihydro-4H-pyrimido[6,1-a]isoquinolin-2-yl)oxy)-2-(3-(trifluoromethyl)phenoxy)benzonitrile (See PCT application no. PCT/CN2011/001597). In this preventive treatment model, the compound was administered at day 0 (day of immunization) and continued to administer until day 22. The study lasted for 25 days. Rats were subsequently monitored for symptoms of EAE. Rats were immunized with MBP to develop EAE and symptoms were monitored daily. Plasma Lp-PLA2 activity, OxLDL, and LysoPC concentration were determined at different time points through the course of EAE.
# Lp-PLA2 in human plasma = target: T1, Lp-PLA2 in human plasma (Homo sapiens, UniProt Q13093); experiment: (3b) Lp-PLA2 human plasma alternative Thio-PAF assay; type: biochemical; settings: (3b) alternative Thio-PAF assay, pooled human plasma; Examples of 266-412 were tested here; read-out: pIC50 in the Lp-PLA2 human plasma assay (converted)
# T1 construct: from tissue; host or cells: pooled human plasma
# T1 sequence (Q13093 22-441): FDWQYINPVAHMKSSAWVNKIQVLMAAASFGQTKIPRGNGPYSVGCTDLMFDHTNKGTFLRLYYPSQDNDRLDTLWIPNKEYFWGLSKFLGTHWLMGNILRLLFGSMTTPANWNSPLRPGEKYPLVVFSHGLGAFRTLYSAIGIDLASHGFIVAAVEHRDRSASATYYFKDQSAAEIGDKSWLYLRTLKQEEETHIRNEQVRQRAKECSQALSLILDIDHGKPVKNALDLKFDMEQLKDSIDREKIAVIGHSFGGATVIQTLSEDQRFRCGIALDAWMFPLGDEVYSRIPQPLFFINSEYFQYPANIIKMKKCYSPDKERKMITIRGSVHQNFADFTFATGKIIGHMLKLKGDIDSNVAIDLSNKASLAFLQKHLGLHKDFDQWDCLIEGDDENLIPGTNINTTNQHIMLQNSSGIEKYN
# Summary of the method: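 Pooled human plasma was preincubated with compound for 15 min at RT. Substrate solution (2 mM 2-thio-PAF, 52 μM CPM, 2.5 mM NEM in 50 mM HEPES pH 7.4, 150 mM NaCl, 1 mM CHAPS; pre-addition concentrations) was added, and the reaction was quenched with 5% TFA after 3 min. Fluorescence was read at ex 380/em 485 nm and fitted to give pIC50.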
# [3] = target: T2, recombinant human Lp-PLA2 (Homo sapiens, UniProt Q13093); experiment: (1b) hrThioPAF assay, recombinant human Lp-PLA2; type: biochemical; settings: Examples 266-412 were tested here, one experiment or average of multiple experiments, read-out: rhLp-PLA2 (pIC50) (converted)
# T2 sequence (Q13093 22-441): T1 sequence (Q13093 22-441)
# Summary of the method: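 Fluorogenic assay: 20 pM rhLp-PLA2 in 50 mM HEPES pH 7.4, 150 mM NaCl, 1 mM CHAPS with 1:3 serially diluted compounds; substrate mix of 40 μM 2-thio-PAF, 40 μM CPM, 400 μM NEM (pre-addition levels). 20 min at 25 °C in the dark; fluorescence ex 380/em 485 nm, pIC50 by curve fitting.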
IC50 (Lp-PLA2 in human plasma),IC50 [3],Structure (SMILES),M1 (proinflammatory) markers [1],M2 (anti-inflammatory) markers [1],plasma Lp-PLA2 activity ([2]; rat EAE plasma),plasma LysoPC levels ([2]; rat EAE plasma),"clinical disease (symptoms of EAE) ([2]; rats immunized with MBP, study lasted 25 days)"
–,–,"COc1ccc2c(c1)CCn1c-2cc(Oc2ccc(Oc3cccc(C(F)(F)F)c3)c(C#N)c2)nc1=O [5-((9-Methoxy-4-oxo-6,7-dihydro-4H-pyrimido[6,1-a]isoquinolin-2-yl)oxy)-2-(3-(trifluoromethyl)phenoxy)benzonitrile]",decrease,increase,decreased,decreased,reduction in clinical disease
≤ 0.1 µM,≤ 10 µM,"O=c1nc(OCc2ccc(F)c(F)c2)cc2n1CC1(CCOCC1)N2 [Example 402, 7-((3,4-Difluorobenzyl)oxy)-2′,3′,5′,6′-tetrahydro-1H-spiro[imidazo[1,2-c]pyrimidine-2,4′-pyran]-5(3H)-one]",–,–,–,–,–
≤ 0.1 µM,≤ 0.001 µM,"O=c1nc(OCc2cc(F)c(Oc3ccnc(C(F)(F)F)c3)c(F)c2)cc2n1CC1CSCCN21 (stereo not drawn) [Example E368, 7-((3,5-Difluoro-4-((2-(trifluoromethyl)pyridin-4-yl)oxy)benzyl)oxy) 3,4,11,11a-tetrahydropyrimido[6′,1′:2,3]imidazo[5,1-c][1,4]thiazin-9(1H)-one]",–,–,–,–,–
